The values below come from publication PMC9777025, “Silibinin Overcomes EMT-Driven Lung Cancer Resistance to New-Generation ALK Inhibitors” (Cancers, 2022).

In test [1] the target is T1, TGFβR1/ALK5 (Homo sapiens, UniProt P36897).
T1 construct: gene TGFBR1
T1 sequence (P36897 34-503): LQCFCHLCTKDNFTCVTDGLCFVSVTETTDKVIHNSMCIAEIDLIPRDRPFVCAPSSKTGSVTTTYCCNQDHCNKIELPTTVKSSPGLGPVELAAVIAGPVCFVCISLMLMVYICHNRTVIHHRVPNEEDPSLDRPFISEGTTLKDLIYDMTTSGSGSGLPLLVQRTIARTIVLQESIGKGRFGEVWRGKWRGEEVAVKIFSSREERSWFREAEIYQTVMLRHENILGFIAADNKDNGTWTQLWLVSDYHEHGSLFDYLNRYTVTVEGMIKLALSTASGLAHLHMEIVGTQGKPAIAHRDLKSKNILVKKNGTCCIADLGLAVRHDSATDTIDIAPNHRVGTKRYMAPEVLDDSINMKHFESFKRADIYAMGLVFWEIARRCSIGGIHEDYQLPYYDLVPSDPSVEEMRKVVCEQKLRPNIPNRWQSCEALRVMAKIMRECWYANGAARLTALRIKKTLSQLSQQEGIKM
Nature of the test: LanthaScreen Eu kinase binding assay (TR-FRET tracer displacement), 10-point titration.

Test [2] deals with T2, TGFβR2 (Homo sapiens, UniProt P37173).
T2 construct: gene TGFBR2
The test is described as above.

In test [3] the test system is T3, H3122/CR.
T3 construct: crizotinib-resistant H3122
Briefly: cells. Also on record: species or system H2228, H2228/CR; MTT cell viability assay, absorbance at 570 nm, IC50 by interpolation. To be noted: Homo sapiens, NCI-H3122; without silibinin. On the procedure: (§1) 2.5. Cell Viability Assay The cell viability effects of ALK–TKIs and silibinin were determined using the colorimetric MTT (3-4,5-dimethylthiazol-2-yl-2,5-diphenyl-tetrazolium bromide) reduction assay. Dose-response curves to graded concentrations of drugs were plotted as a percentage of the control cell absorbance, which was obtained from control cells containing the vehicle processed simultaneously. For each treatment, cell viability was evaluated using the following equation: (OD570 of the treated sample/OD570 of the untreated sample) × 100. Sensitivity to agents was expressed in terms of the concentrations required for a 50% (IC50) reduction in cell viability. Since the percentage of control absorbance was considered to be the surviving fraction of cells, the IC50 values were defined as the concentration of drug that produced a 50% reduction in control absorbance (by interpolation).

Test [4] relates to H2228. Briefly: cells. As to conditions: Homo sapiens, NCI-H2228; without silibinin. Also on record: species or system H2228/CR, H3122, H3122/CR; MTT cell viability assay, absorbance at 570 nm, IC50 by interpolation. How it is done: as §1
For test [5], the system named is H3122. Briefly: cells. Also on record: species or system H2228, H2228/CR, H3122/CR; MTT cell viability assay, absorbance at 570 nm, IC50 by interpolation. As to conditions: Homo sapiens, NCI-H3122; without silibinin. How it is done: as §1
Test [6] relates to T4, H2228/CR.
T4 construct: crizotinib-resistant H2228
Briefly: cells. Also on record: species or system H3122, H3122/CR; MTT cell viability assay, absorbance at 570 nm, IC50 by interpolation. As to conditions: Homo sapiens, NCI-H2228; without silibinin. How it is done: as §1

T2 sequence (P37173 23-567): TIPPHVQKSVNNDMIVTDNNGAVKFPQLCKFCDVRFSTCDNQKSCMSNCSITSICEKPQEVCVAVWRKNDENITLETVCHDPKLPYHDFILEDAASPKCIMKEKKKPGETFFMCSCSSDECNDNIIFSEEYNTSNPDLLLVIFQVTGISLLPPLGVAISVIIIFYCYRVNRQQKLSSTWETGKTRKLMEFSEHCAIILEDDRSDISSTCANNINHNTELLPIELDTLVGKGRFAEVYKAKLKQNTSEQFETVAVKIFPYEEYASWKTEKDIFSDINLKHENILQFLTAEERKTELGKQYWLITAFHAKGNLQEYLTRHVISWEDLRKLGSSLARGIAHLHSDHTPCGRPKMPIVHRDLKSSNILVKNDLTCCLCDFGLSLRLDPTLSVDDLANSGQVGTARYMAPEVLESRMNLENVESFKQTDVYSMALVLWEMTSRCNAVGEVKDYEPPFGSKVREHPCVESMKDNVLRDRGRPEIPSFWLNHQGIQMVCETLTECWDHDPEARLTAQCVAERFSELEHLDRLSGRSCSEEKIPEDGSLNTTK

As for `COc1cc(C2Oc3cc([C@H]4Oc5cc(O)cc(O)c5C(=O)[C@@H]4O)ccc3OC2CO)ccc1O` (mixture of isomers) [silibinin], the IC50 in test [1] was found to be 70 µM; in test [2] it was 56 µM.
`COc1cc(N2CCC(N3CCN(C)CC3)CC2)ccc1Nc1ncc(Cl)c(Nc2ccccc2P(C)(C)=O)n1` [brigatinib]: the IC50 in test [3] worked out at 0.12 µM; in test [4], 0.5 µM; in test [5], 0.02 µM; in test [6], 3.8 µM.
In the same order, the values of `C[C@@H](Oc1cc(-c2cnn(C3CCNCC3)c2)cnc1N)c1c(Cl)ccc(F)c1Cl` [crizotinib] are 1.08 µM, 2.1 µM, 0.29 µM and 10.6 µM.
Take `C[C@H]1Oc2cc(cnc2N)-c2c(nn(C)c2C#N)CN(C)C(=O)c2ccc(F)cc21` [lorlatinib]: the IC50 came to 0.02 µM in test [3], 1 µM in test [4], 0.004 µM in test [5] and 83 µM in test [6].
